Patent publication EP1222921B1, “Pharmaceutical compositions of tizoxanide and/or nitazoxanide” (Romark Laboratories, L.C., priority 1997, dated 1998)
Several values for one entry are separate records, joined by “and”; a condition that tells them apart may be missing. Equal entries are not always repeated.

Legend:
Solubility in DMSO = format: physicochemical; settings: in 1 ml DMSO
Description: Nitazoxanide (NTZ), the compound of formula (II), is the generic name for 2-(acetolyloxy)-N-(5-nitro 2-thiazoly) benzamide, a compound first synthesized by Rossignol and Cavier in 1975. 2 mg of nitazoxanide can be dissolved in 1 ml DMSO. Nitazoxanide is easily absorbed orally.

mycobacteria = assay: MTS colorimetric assay of mycobacteria growing in a liquid broth; format: cell-based
Description: Fig. 7 is a chart based upon the assay for nitazoxanide effectiveness against mycobacteria growing in a liquid broth. We used the MTS colorimetric assay which permits us to determine growth in 4 hours rather than 3 weeks as with the agar counting method.

S. mansoni = settings: posttreatment positive egg-counts; report by Abaza et al.; cited from earlier work
[1] = test system: early mature (10-week/old) F. gigantica; assay: Experimentally infected rabbits, early mature flukes; format: in vivo, Fasciola gigantica
Description: Nitazoxanide was tested against immature and mature Fasciola gigantica in experimentally infected rabbits. Fasciola gigantica encysted metacercariae (EMC) were collected on cellophane sheet after 28-35 days from infection of L. calludi snails by Fasciola gigantica miracidium using the technique described by […] snails were exposed daily to artificial light, for 30 minutes, in clean dechlorinated tap water. The resulting encysted […]) were preserved at 4°C in a refrigerator for 5 to 8 days under the surface of water until they were used to infect experimental animals. Forty (40) Boscat rabbits, weighting 1.5 to 2 kg each, were included in the study and allocated to two treatment groups of 20 animals. […] Ten animals from Group 2 received 35 mg of nitazoxanide, morning and evening, for 7 consecutive days 10 weeks after their infection at the mature stage of the parasite. The 10 remaining animals in Group 2 were kept as untreated controls. All animals were fed with dry ration until the end of the experiment. Seven days after administration of the last dose of nitazoxanide, all rabbits from each group were sacrificed. The surface of the liver was examined for the presence of necrotic migrating furrows especially at the immature stage of the parasite cycle. These necrotic areas were examined using two surgical needles in order to extract the juvenile migrating flukes according to the technique described by El-Bahy. The livers were sliced in small pieces especially around the migrating furrows and macerated under a microscope in order to extract the existing flukes. The abdominal cavity and the visceral surfaces were washed with warm water. The water was then collected, sieved and examined for identification of juvenile flukes. All the collected parasites as well as parts of them were counted in both treated and untreated animal in both Groups 1 and 2. […] The efficacy of nitazoxanide was calculated by using the formula indicated below: % efficacy(a - b)/(a)x 100 [formula] Where: • a = the number of flukes recovered from feces in the control animals • b = the number of flukes recovered from feces in the treated animals.

Cryptosporidium parvum = assay: Experimentally infected suckling mice, oocyst shedding; format: in vivo
Description: The effect of nitazoxanide was tested against Cryptosporidium parvum in experimentally infected mice. Nitazoxanide was supplied by Romark Laboratories, L.C. in Tampa, Florida. The total human dose (1 g/day for 7 days i.e. 7 g) was modified for use for mice according to Paget and Barnes. The human dose was multiplied by 0.0026 for mice (weighing approximately 20 grams) to obtain he total amount of the drug needed for each host morning and evening for 7 consecutive days. […] The doses were administered by mouth using a plastic syringe equipped with around tip needle. Twenty (20) 2-day old suckling mice were infected by oral administration of 100,000 oocysts of Crytospordium parvum obtained from infected calves. Before being administered to mice, the oocysts were concentrated using a sugar solution according to the technique described by […]. Rectal swabs from each mouse were obtained and examined daily using the modified […] staining technique described by Graczyk et al. Oocysts shedding appeared in feces 2 days after the oral infection of the animals. On the third day following infection of the animals, 10 mice received 1.3 mg of nitazoxanide, morning and evening, for 7 consecutive days while the 10 remaining mice were kept as untreated controls. Rectal swabs were obtained daily for each of the 7 days of treatment and for each of the 7 days following the end of treatment. The oocysts were suspended in oil and counted per 100 fields under a microscope.

[2] = test system: mature (13-week/old) Schistosoma hematobium; assay: Experimentally infected mice, worm count; format: in vivo
Description: (§1) Nitazoxanide was tested against Schistosoma mansoni and Schistosoma hematobium in experimentally infected mice. Forty (40) white mice, weighing 30 to 50 grams were allocated to two treatment groups of 20 animal per group. The first group was infected with 300-500 Schistosoma mansoni free active cercariae suspended in 0.25 ml of distilled water and administered to each mouse by intraperitoneal injection. The second group was infected in the same manner but with Schistosoma hemotobium cercariae. These two groups were then kept for a total of 70 days in the laboratory. Seventy days after infection of the animals, ten mice from each group were treated with nitazoxanide as a 1.3 mg oral dose administered, morning and evening, for 7 consecutive days. Seven days after the end of treatment tall mice were sacrificed and the worms were extracted from the liver of each animal by perfusion using tepid water (37°C). The extracted schistosomes were counted for all treatment and control animals. The efficacy of nitazoxanide was calculated busing the formula indicated below: % efficacy(a - b)/(a)x 100 [formula] Where: • a = the number of schistosomes recovered from feces in the control animals • b = the number of schistosomes recovered from feces in the treated animals

[3] = test system: mature (13-week/old) Schistosoma mansoni; assay: Experimentally infected mice, worm count; format: in vivo
Description: as §1

MRC5 fibroblasts = settings: human, 72 h
[4] = mean of 10 rabbits, 70 mg/day for 7 consecutive days
[5] = 10 mice, 2.6 mg/day for 7 consecutive days
[6] = individual mice No. 1-10, 1.3 mg oral morning and evening for 7 consecutive days, 70 days after infection
[7] = total of 10 mice, 2.6 mg/day for 7 consecutive days

Structure (SMILES): CC(=O)Oc1ccccc1C(=O)Nc1ncc([N+](=O)[O-])s1 [Nitazoxanide, 2-(acetolyloxy)-N-(5-nitro 2-thiazoly) benzamide]
- amount that can be dissolved (Solubility in DMSO): 2 mg
- effect on continued growth (mycobacteria; 3 µg/ml dose added at the 72 hr after culture was initiated): stops growth for the next 24 hrs and then there is a slow growth afterwards for the next 2 days
- effect on continued growth (mycobacteria; 50 µg/ml dose added at the 72 hr after culture was initiated): completely bacteriostatic throughout the 144 hours of the culture
- efficacy in patients (S. mansoni): not effective
- overall efficacy ([1]; 70 mg/day dose for 7 consecutive days): completely effective
- No. of flukes extracted from liver of Treated Rabbits ([1]; individual rabbits No. 1-10, 35 mg morning and evening for 7 consecutive days, 10 weeks after infection): 0.0
- Efficacy % ([1]; individual rabbits No. 1-10 versus untreated control, 35 mg morning and evening for 7 consecutive days): 100%
- Efficacy %, Mean (reduction) [1, 4]: 100%
- No. of flukes extracted from liver of Treated Rabbits, Mean [1, 4]: 0.0
- oocyst shedding at the end of treatment (Cryptosporidium parvum; Day 7, 2.6 mg/day by mouth for 7 consecutive days, suckling mice): complete reduction of the oocyst shedding
- fecal examinations after the end of treatment (Cryptosporidium parvum; days 3 and 7 after the end of treatment): negative examinations
- treated mice with decreased oocysts shedding (Cryptosporidium parvum; end of the third day of treatment, 2.6 mg/day by mouth for 7 consecutive days, suckling mice): 6 of the 10
- No. of flukes removed from liver of Treated Mice, Mean/Mouse [2, 5]: 2.4
- No. of flukes removed from liver of Treated Mice [2, 6]: 2 (5×) and 0.0 and 3 (2×) and 4 (2×)
- No. of flukes removed from liver of Treated Mice, Total [2, 7]: 24
- Efficacy (worm reduction) ([2]; versus control animals, 2.6 mg/day for 7 consecutive days): 82.85%
- No. of flukes removed from liver of Treated Mice, Mean/Mouse [3, 5]: 9.9
- No. of flukes removed from liver of Treated Mice [3, 6]: 12 and 8 and 7 and 10 (3×) and 9 (2×) and 11 and 13
- No. of flukes removed from liver of Treated Mice, Total [3, 7]: 99
- Efficacy (worm reduction) ([3]; versus control mice, 2.6 mg/day for 7 consecutive days): 59.91%
- concentrations with marked toxicity on the cell monolayer (MRC5 fibroblasts): ≥ 2500 ng/mL
